Results: patent publication US7807721B2, “Compositions for inhibiting the scent tracking ability of mosquitoes in environmentally defined three dimensional spaces” (Biosensory Inc., priority 1999, dated 2010)

Legend:
Type in all cases: in vivo
[1] = test system: adult female Aedes aegypti mosquitoes; assay: Dual-port olfactometer tests of Example 2: test compound + CS vs CS, and Deet vs inhibitor
From the text: (§1) A triple cage, dual-port olfactometer, illustrated and described in detail by Posey et al. J. Med. Entomol. 35(3), 330-334 (1998), was used to study the responses of 6 to 8 day old, laboratory-reared adult female Aedes aegypti mosquitoes. This system allows mosquitoes to choose between two different stimuli. The olfactometer is constructed of clear acrylic, comprises three test chambers in a tiered configuration, has paired removable sleeves, and mosquito traps on each chamber, and is equipped with a filtered external air supply system that allows precise temperature (+/−0.5° C.) and relative humidity (+/−2%) control. Only one chamber at a time was used for the tests. Outside air was conditioned prior to entry through the choice ports, the mosquito trap, and the olfactometer by passing through a series of charcoal filters and then heated and humidified, if necessary. One hour before initiation of tests, about 75 female Ae. aegypti mosquitoes were aspirated into the olfactometer chamber and allowed to acclimatize for that one hour before testing. Test compounds were placed into test ports upwind of the traps and olfactometer chamber. A completely randomized design was used for cage position. Competitive tests were conducted. In these competitive tests, the inhibiting compound was placed into one of the ports (treatment port); the second port (check port) had the same apparatus but no chemical inhibiting compound. In these tests, inhibiting compounds were presented in glass Pyrex petri dishes (60×15 mm) that had been cleaned and sterilized in a vacuum oven and then handled only with gloves to minimize any chance of contamination and placed into one port (Treatment Port) along with another petri dish containing 500 μL of Clara Sludge (CS), a synthetic human attractant. The other port (Check Port) contained an untreated petri with no inhibiting compound and a second petri dish containing 500 μL CS. Various concentrations (25, 100, 250, 500 and 1000 μL) of the compounds were used in these tests. Each test was conducted for a period of 3 minutes; the number of mosquitoes trapped in the baited ports, and those remaining in the cage, were counted. The data are then presented as a percentage of total mosquitoes in the cage that were attracted to each port and the percentage of mosquitoes remaining in the cage (i.e., not attracted to either port). Tests identical to that described in Example 1 were conducted with test compounds when employed together with the synthetic human attractant (CS) in a port. The test combinations were: • (1) CS vs. CS (comparison) • (2) dehydrolinalool+CS vs. CS • (3) linalool+CS vs. CS Also for comparison purposes, a known topical mosquito repellent, Deet, namely N,N-diethyl-3-methylbenzamide, was employed to compare to linalool and to dehydrolinalool. Each test compound was tested at 100, 250 and 500 μL. The results are again presented as percent mosquitoes attracted to Ports 1 or 2 or not attracted to either port.

[2] = test system: adult female Aedes aegypti mosquitoes; assay: Competitive tests in triple cage, dual-port olfactometer: inhibitor + Clara Sludge (CS) human attractant port vs CS-only port; conditions: for % Mosquitoes Entering Treatment Port (Inhibitor Port): 3 min test; for % Mosquitoes Entering Control Port (Human Scent Port): control port 500 μL CS only; for % Mosquitoes Entering Control Port (Human Scent Port) / % Mosquitoes Remaining in Cage: 3 min; for inhibition of the ability of mosquitoes to locate the human scent (CS): all tested concentration levels (25-1000 μL)
From the text: as §1, with “port).” for “port). Tests identical to that described in Example 1 were conducted with test compounds when employed together with the synthetic human attractant (CS) in a port. The test combinations were: • (1) CS vs. CS (comparison) • (2) dehydrolinalool+CS vs. CS • (3) linalool+CS vs. CS Also for comparison purposes, a known topical mosquito repellent, Deet, namely N,N-diethyl-3-methylbenzamide, was employed to compare to linalool and to dehydrolinalool. Each test compound was tested at 100, 250 and 500 μL. The results are again presented as percent mosquitoes attracted to Ports 1 or 2 or not attracted to either port.”

Culex nigripalpus = assay: Field test, mosquito landing counts on human subject in open area surrounded by linalool dispensers
Method: In a further test of the inhibiting ability of the compounds of this invention, the following field test was conducted using linalool as the inhibiting compound. The study was conducted on a site adjacent to a wooded wetland breeding area in Sarasota, Fla. A trap baited with 200 ml/min CO2, equivalent to the respiration of a 91 kg (200 lb) man, ran continuously each night as an experimental control. The trap collections were first used to count the mosquito population and were then examine to identify the species present. The mosquito population was about 91% Culex nigripalpus, the St. Louis encephalitis vector in Florida.
The experimental design was a 2×2 Latin Square. Tests were conducted in two open areas 24 meters (80 feet) apart labeled Locations 1 and 2. Each area was 2.4 meters×2.4 meters (8 ft×8 ft), i.e., 5.76 m^2 (64 ft^2). Wooden poles 1.38 meters (4.5 feet) high and having inhibiting compound dispensers thereon were driven into the ground at the corners of the square area. On alternate nights, one area was unprotected by inhibiting compound while the other area had inhibiting compound dispensed from the dispenser. In operation, the dispenser emitted linalool inhibitor having 95% active ingredient at a rate of 20 mg/hr to 40 mg/hr.
Landing counts were taken from the arms, legs and torso of a test subject known to be moderately attractive to mosquitoes who was seated in the center of the square area. At 15-minute intervals over a period of 2 to 3 hours during peak mosquito activity, the subject changed position, alternating between Locations 1 and 2. […] Mosquitoes were killed to prevent double counting.
On some cue, they emerge en masse from the wooded wetland and fan out in a radial direction foraging for blood hosts. The period of peak activity is evidenced by a sharp increase in landing counts followed by a sharp decrease as the wave of outbound mosquitoes passes the test location. This behavior introduces two variables that must be taken into account. The first affects the experimental design and the second affects the interpretation of the results. […]

[3] = 100 micro liter, Port 1 Deet vs Port 2 dehydrolinalool
[4] = 100 micro liter, Port 1 Deet vs Port 2 linalool
[5] = 250 micro liter, Port 1 Deet vs Port 2 dehydrolinalool
[6] = 250 micro liter, Port 1 Deet vs Port 2 linalool
[7] = 500 micro liter, Port 1 Deet vs Port 2 dehydrolinalool
[8] = 500 micro liter, Port 1 Deet vs Port 2 linalool
[9] = 25 micro liter test compound + 500 μL CS in treatment port
[10] = 25 micro liter test compound in treatment port
[11] = 100 micro liter test compound + 500 μL CS in treatment port
[12] = 100 micro liter test compound in treatment port
[13] = 250 micro liter test compound + 500 μL CS in treatment port
[14] = 250 micro liter test compound in treatment port
[15] = 500 micro liter test compound + 500 μL CS in treatment port
[16] = 500 micro liter test compound in treatment port
[17] = 1000 micro liter test compound + 500 μL CS in treatment port
[18] = 1000 micro liter test compound in treatment port
[19] = 100 micro liter, Port 1 test compound vs Port 2 human scent
[20] = 250 micro liter, Port 1 test compound vs Port 2 human scent
[21] = 500 micro liter, Port 1 test compound vs Port 2 human scent

Row | Structure (SMILES) | % Mosquitoes Remaining in Cage [1, 3] [%] | % Mosquitoes Remaining in Cage [1, 4] [%] | % Mosquitoes Remaining in Cage [1, 5] [%] | % Mosquitoes Remaining in Cage [1, 6] [%] | % Mosquitoes Remaining in Cage [1, 7] [%] | % Mosquitoes Remaining in Cage [1, 8] [%] | % Mosquitoes Entering Treatment Port (Inhibitor Port) [2, 9] [%] | % Mosquitoes Entering Control Port (Human Scent Port) [2, 10] [%] | % Mosquitoes Remaining in Cage ([2]; 25 micro liter test compound) [%] | % Mosquitoes Entering Treatment Port (Inhibitor Port) [2, 11] [%] | % Mosquitoes Entering Control Port (Human Scent Port) [2, 12] [%] | % Mosquitoes Remaining in Cage ([2]; 100 micro liter test compound) [%] | % Mosquitoes Entering Treatment Port (Inhibitor Port) [2, 13] [%] | % Mosquitoes Entering Control Port (Human Scent Port) [2, 14] [%] | % Mosquitoes Remaining in Cage ([2]; 250 micro liter test compound) [%] | % Mosquitoes Entering Treatment Port (Inhibitor Port) [2, 15] [%] | % Mosquitoes Entering Control Port (Human Scent Port) [2, 16] [%] | % Mosquitoes Remaining in Cage ([2]; 500 micro liter test compound) [%] | % Mosquitoes Entering Treatment Port (Inhibitor Port) [2, 17] [%] | % Mosquitoes Entering Control Port (Human Scent Port) [2, 18] [%] | also measured
1 | CCN(CC)C(=O)c1cccc(C)c1 [Deet, N,N-diethyl-3-methylbenzamide, reference compound] | 19.8 | 26.2 | 29.2 | 26.2 | 27.6 | 27.3 | – | – | – | – | – | – | – | – | – | – | – | – | – | – | % Mosquitoes Entering Port 1 (Deet) [1, 3]: 60.1%; % Mosquitoes Entering Port 1 (Deet) [1, 4]: 56.3%; % Mosquitoes Entering Port 1 (Deet) [1, 5]: 48.8%; % Mosquitoes Entering Port 1 (Deet) [1, 6]: 48.1%; % Mosquitoes Entering Port 1 (Deet) [1, 7]: 42.1%; % Mosquitoes Entering Port 1 (Deet) [1, 8]: 49.5%
2 | C#CC(C)(O)CCC=C(C)C (centres unmarked) [Dehydrolinalool, dehydrolinalool] | 19.8 | – | 29.2 | – | 27.6 | – | 30.23 | 50.77 | 19 | 31.13 | 53.87 | 15 | 22.6 | 44.6 | 32.8 | 24.8 | 56.47 | 24.18 | 26.11 | 42.76 | % Mosquitoes Remaining in Cage ([2]; 1000 micro liter test compound): 27.12%; inhibition of the ability of mosquitoes to locate the human scent (CS) [2]: greatly inhibit; % Mosquitoes Entering Port 2 (dehydrolinalool) [1, 3]: 20.1%; % Mosquitoes Entering Port 1 (test compound + CS) [1, 19]: 18.1%; % Mosquitoes Entering Port 2 (human scent) [1, 19]: 63%; % Mosquitoes Remaining in Cage [1, 19]: 18.9%; % Mosquitoes Entering Port 2 (dehydrolinalool) [1, 5]: 22.5%; % Mosquitoes Entering Port 1 (test compound + CS) [1, 20]: 20.1%; % Mosquitoes Entering Port 2 (human scent) [1, 20]: 59.2%; % Mosquitoes Remaining in Cage [1, 20]: 20.6%; % Mosquitoes Entering Port 2 (dehydrolinalool) [1, 7]: 30.3%; % Mosquitoes Entering Port 1 (test compound + CS) [1, 21]: 20.6%; % Mosquitoes Entering Port 2 (human scent) [1, 21]: 55.5%; % Mosquitoes Remaining in Cage [1, 21]: 23.9%
3 | C=CC(C)(O)CCC=C(C)C (centres unmarked) [Linalool, linalool] | – | 26.2 | – | 26.2 | – | 27.3 | 21.98 | 56.89 | 21.14 | 31.3 | 45.61 | 23.08 | 16.57 | 47.3 | 36.13 | 16.13 | 44.56 | 39.31 | 27.24 | 44.14 | % Mosquitoes Remaining in Cage ([2]; 1000 micro liter test compound): 31.3%; inhibition of the ability of mosquitoes to locate the human scent (CS) [2]: greatly inhibit; reduction of mosquito landing counts, average (Culex nigripalpus; average over the three trials, linalool dispensed at 20 mg/hr to 40 mg/hr, human subject, 64 ft^2 area): 53%; reduction of landings (Culex nigripalpus; morning trial (7:00 AM to 9:00 AM) when mosquito activity was light): 73%; landings on human subject (Culex nigripalpus; subject surrounded by linalool dispensed from the dispensers (unprotected: 286 landings)): 135 landings; % Mosquitoes Entering Port 2 (linalool) [1, 4]: 17.5%; % Mosquitoes Entering Port 1 (test compound + CS) [1, 19]: 22.5%; % Mosquitoes Entering Port 2 (human scent) [1, 19]: 50.7%; % Mosquitoes Remaining in Cage [1, 19]: 26.8%; % Mosquitoes Entering Port 2 (linalool) [1, 6]: 25.7%; % Mosquitoes Entering Port 1 (test compound + CS) [1, 20]: 14.9%; % Mosquitoes Entering Port 2 (human scent) [1, 20]: 56.8%; % Mosquitoes Remaining in Cage [1, 20]: 28.4%; % Mosquitoes Entering Port 2 (linalool) [1, 8]: 23.1%; % Mosquitoes Entering Port 1 (test compound + CS) [1, 21]: 25.7%; % Mosquitoes Entering Port 2 (human scent) [1, 21]: 55.6%; % Mosquitoes Remaining in Cage [1, 21]: 18.7%
